Assay results: patent US10322136B2, “Composition for inhibiting growth or proliferation of chronic myelogenous leukemia cancer stem cells, and screening method therefor” (HIROSHIMA UNIVERSITY, priority 2015, dated 2019)

Experiments:
Slc15A2 transporter = biological target: T1, Slc15A2 transporter (Mus musculus, UniProt Q9ES07); experiment: Slc15A2 transporter activity by [3H]GlySar uptake; format: cell-based; conditions: in the presence of 100 μM cefadroxil; pH 6.0; 60 or 120 min
T1 construct: endogenous in cells; host or cells: primary mouse normal KLS+ and CML KLS+ haematopoietic cells
T1 sequence (Q9ES07 1-729): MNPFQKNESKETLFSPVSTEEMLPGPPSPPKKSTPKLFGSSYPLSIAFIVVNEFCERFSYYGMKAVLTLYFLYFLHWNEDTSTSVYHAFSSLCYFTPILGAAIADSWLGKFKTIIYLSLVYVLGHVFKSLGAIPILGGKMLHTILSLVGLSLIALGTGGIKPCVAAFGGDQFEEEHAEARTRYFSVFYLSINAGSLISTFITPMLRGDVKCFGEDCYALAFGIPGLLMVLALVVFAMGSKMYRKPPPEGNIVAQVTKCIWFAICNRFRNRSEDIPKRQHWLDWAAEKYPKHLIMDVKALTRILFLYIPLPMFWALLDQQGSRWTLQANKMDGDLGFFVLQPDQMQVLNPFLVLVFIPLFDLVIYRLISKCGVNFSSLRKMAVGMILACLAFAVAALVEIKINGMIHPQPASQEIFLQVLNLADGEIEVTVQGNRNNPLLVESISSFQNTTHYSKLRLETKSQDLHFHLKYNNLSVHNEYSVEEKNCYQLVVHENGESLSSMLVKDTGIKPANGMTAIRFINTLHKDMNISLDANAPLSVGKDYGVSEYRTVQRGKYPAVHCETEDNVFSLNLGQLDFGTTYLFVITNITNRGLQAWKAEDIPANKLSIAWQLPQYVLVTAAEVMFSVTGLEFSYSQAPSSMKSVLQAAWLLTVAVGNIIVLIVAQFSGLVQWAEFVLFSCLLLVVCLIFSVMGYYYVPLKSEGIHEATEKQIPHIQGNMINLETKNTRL
Procedure: 6. Analysis of Slc15A2 Transporter Activity by [3H]GlySar Uptake
Slc15A2 transporter activity was determined using a well-established assay measuring [3H]GlySar uptake by cells suspended in an acidic transport medium (pH 6.0). Briefly, normal KLS^+ cells or CML KLS^+ cells (1×10^5) were suspended in a transport medium (125 mM NaCl, 4.8 mM KCl, 5.6 mM D-glucose, 1.2 mM CaCl2-2H2O4, 1.2 mM KH2PO4, 1.2 mM MgSO4-7H2O and 25 mM MES, pH 6.0) in the absence or presence of 100 μM cefadroxil (Sigma-Aldrich). To initiate the transporter reaction, [3H]GlySar (Moravek Biochemicals, Brea, Calif.) was added to the cell suspension. After 60 or 120 min, the radioactivity of [3H]GlySar internalized by cells was measured using a liquid scintillation counter.

CML-KLS+ cells [1] = experiment: Metabolomic analysis of dipeptides in KLS+ cells from treated CML-affected mice; format: in vivo, mouse; conditions: cefadroxil 36 mg/kg/day oral gavage for 30 days
Procedure: To detect inhibition of dipeptide uptake in vivo, immature KLS^+ cells were isolated from tet-inducible CML-affected (Tal1-tTA^+TRE-BCR-ABL1^+) mice (n=4 mice in each of the three independent experiments), and normal healthy littermate (Tal1-tTA^+) mice (n=6 mice in each of the two independent experiments) that had received vehicle or cefadroxil (36 mgKg^−1day^−1) by oral gavage for 30 days. […] In all cases, isolated cell pellets were frozen at −80° C. immediately after obtaining. Metabolomic profiling was performed by Metabolon Inc. (Durham, N.C.) using ultrahigh-performance liquid chromatography/mass spectroscopy (UPLC/MS/MS) and gas chromatography/MS (GC/MS). Data were compiled using the Metabolon LIMS (Laboratory Information Management System). The UPLC/MS/MS portion of the platform was based on a Waters Acquity UPLC (Waters) and a Q-Exactive high-resolution/accurate mass spectrometer (Thermo Scientific) interfaced with a heated electrospray ionization (HESI-II) source and Orbitrap mass analyzer. GC/MS was performed by a Trace DSQ fast-scanning single-quadrupole mass spectrometer using electron impact ionization (Thermo-Finnigan).

LT-CML cancer stem cells = experiment: Colony-forming assay, LT-CML cancer stem cells on OP-9 stromal cells; format: cell-based, mouse; conditions: 5 μM, 5 days, hypoxic (3% O2)
Procedure: LT-CML stem cells or LT-normal HSCs (1×10^3/plate) were co-cultured on OP-9 stromal cells for 5 days in the presence of either vehicle (control) or a dipeptide transporter inhibitor cefadroxil (5 μM). Cells were harvested, washed with PBS, and plated in semi-solid methylcellulose medium containing SCF, IL-3, IL-6 and erythropoietin (Methocult GF M3434; Stem Cell Technologies). After growth for 7 days in a humidified atmosphere containing 5% CO2 at 37° C., colony numbers were counted under a light microscope. For combination treatments of dipeptide transporter inhibitor+tyrosine kinase inhibitor (TKI), LT-CML cancer stem cells (3×10^3) were plated on OP-9 stromal cells in the presence of cefadroxil (5 μM). After 24 h in culture, the cells received additional DMSO or 1 μM IM (Axon Medchem) and were incubated for another 4 days (total 5 days). Treated cells were washed with PBS, transferred to a semi-solid medium, and colony formation after 7 days was assessed as described above.

BCR-ABL1+ disease = experiment: Survival and disease recurrence of BCR-ABL1 CML-affected mice; format: in vivo, mouse; conditions: oral gavage days 8 to 90 post transplantation; IM 100 mg/kg/day; cefadroxil 36 mg/kg/day; versus vehicle
Excerpt: BCR-ABL1 transduction/transplantation-based CML model (BCR-ABL1 CML mice) was also used. Briefly, normal KLS^+ cells (4-5×10^3 cells per recipient mouse) were transduced with the human BCR-ABL1-ires GFP retrovirus and transplanted into irradiated (9 Gy) recipient C57BL/6 mice (Sankyo-Lab Service, Tsukuba, Japan).
Treatment was delivered by oral gavage on days 8 to 90 post transplantation. To examine the effect of single administration of Ly2228820, BCR-ABL1-CML-affected mice received vehicle, or Ly2228820 (2.5 mg kg^−1 every three days; Axon Medchem) in vehicle, by oral gavage on days 8 to 60 days post transplantation.

CML-KLS+ cells [2] = experiment: Serial transplantation of CML stem cells; format: in vivo, mouse
Procedure: To evaluate the retention of the disease-initiating capacity by CML stem cells after treatment of mice with cefadroxil […] and/or IM in vivo, the number of GFP/BCR-ABL1+CMLKLS^+ cells in treated BCR-ABL1 CML-affected mice was determined, and subsequent secondary transplantation of the cells was performed. Briefly, CML-affected mice received by oral gavage for 30 days post BM transplantation as described above. The number of GFP/BCR-ABL1+CML-KLS+ cells among total GFP/BCR-ABL1+CML cells isolated from BM MNCs acquired from the two hindlimbs of treated CML-affected mice was assessed by flow cytometry. Freshly purified GFP/BCR-ABL1^+CML-KLS^+ cells (3×10^4) were then serially transplanted into a second set of lethally irradiated congenic recipient mice along with 5×10^5 normal BM MNCs derived from C57BL/6 mice. Mouse survival and disease recurrence were monitored for 90 days.

Structure (SMILES): CC1=C(C(=O)O)N2C(=O)[C@@H](NC(=O)[C@H](N)c3ccc(O)cc3)[C@H]2SC1 [cefadroxil]
- [3H]GlySar uptake by CML-KLS+ cells (Slc15A2 transporter): markedly decreased
- levels of several dipeptides in immature CML-KLS+ cells (CML-KLS+ cells [1]): decreased
- colony-forming capacity of LT-CML cancer stem cells (LT-CML cancer stem cells): significantly decreased
- BCR-ABL1+ disease onset / development (BCR-ABL1+ disease): appeared to promote disease development
- ability of CML-KLS+ cells from treated mice to drive BCR-ABL1+ disease in new recipients (CML-KLS+ cells [2]; 3x10^4 cells per recipient, donors treated with cefadroxil): completely lost their ability
- survival of new recipient mice (CML-KLS+ cells [2]; recipients of CML-KLS+ cells from cefadroxil-treated mice): over 90 days
